Data from ChEMBL document CHEMBL1909046, “DrugMatrix in vitro pharmacology data”.

What was measured:
[1] = target: Cytochrome P450 2C19 (Homo sapiens, UniProt P33261); conditions: bti-tn-5b1-4; note: in other assays of this panel Not Active means under 50% inhibition at 10 µM
[2] = DRUGMATRIX: Serotonin (5-Hydroxytryptamine) 5-HT3 radioligand binding (ligand: [3H] GR-65630); type: cell membranes, Membrane; conditions: hek293; Not Active = under 50% inhibition at 10 µM
[3] = target: T1, Endothelin-1 receptor (Homo sapiens, UniProt P25101); type: cell membranes, Membrane; conditions: cho-k1; note: in other assays of this panel Not Active means under 50% inhibition at 10 µM
T1 sequence (P25101 whole entry): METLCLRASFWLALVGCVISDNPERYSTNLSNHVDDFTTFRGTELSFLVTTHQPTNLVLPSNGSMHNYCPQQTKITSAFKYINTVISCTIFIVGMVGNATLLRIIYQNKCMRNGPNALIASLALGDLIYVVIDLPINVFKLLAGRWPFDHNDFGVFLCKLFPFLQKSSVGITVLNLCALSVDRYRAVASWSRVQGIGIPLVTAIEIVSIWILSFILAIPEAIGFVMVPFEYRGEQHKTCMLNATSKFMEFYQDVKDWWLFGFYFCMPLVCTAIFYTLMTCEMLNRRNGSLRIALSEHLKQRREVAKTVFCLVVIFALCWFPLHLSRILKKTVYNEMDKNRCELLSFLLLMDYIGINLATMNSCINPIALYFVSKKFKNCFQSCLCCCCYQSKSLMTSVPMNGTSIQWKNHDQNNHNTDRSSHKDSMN

[4] = DRUGMATRIX: Potassium Channel [KATP] radioligand binding (ligand: [3H] Glyburide); type: cell membranes, Membrane; conditions: hit-t15; Not Active = under 50% inhibition at 10 µM
[5] = target: Substance-P receptor (Homo sapiens, UniProt P25103); type: cell membranes, CHO, Membrane; conditions: cho; note: in other assays of this panel Not Active means under 50% inhibition at 10 µM
Sequence of Substance-P receptor (P25103 whole entry): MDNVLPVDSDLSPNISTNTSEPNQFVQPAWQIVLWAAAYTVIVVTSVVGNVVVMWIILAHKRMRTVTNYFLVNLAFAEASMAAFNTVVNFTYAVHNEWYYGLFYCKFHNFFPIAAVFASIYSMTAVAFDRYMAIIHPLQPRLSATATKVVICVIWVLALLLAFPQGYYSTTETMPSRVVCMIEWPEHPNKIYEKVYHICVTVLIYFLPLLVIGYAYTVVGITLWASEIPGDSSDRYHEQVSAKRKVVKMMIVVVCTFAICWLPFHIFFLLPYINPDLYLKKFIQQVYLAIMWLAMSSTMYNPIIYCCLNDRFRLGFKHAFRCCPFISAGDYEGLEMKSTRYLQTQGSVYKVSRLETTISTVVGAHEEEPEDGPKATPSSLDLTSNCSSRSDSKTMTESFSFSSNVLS

[6] = target: Prostaglandin G/H synthase 1 (Homo sapiens, UniProt P23219); assay: biochemical; type: tissue-based, Platelet; conditions: platelet;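 note: inhibition of COX-1 enzyme activity, with arachidonic acid supplied as substrate; in other assays of this panel Not Active means under 50% inhibition at 10 µM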
Sequence of Prostaglandin G/H synthase 1 (P23219 whole entry): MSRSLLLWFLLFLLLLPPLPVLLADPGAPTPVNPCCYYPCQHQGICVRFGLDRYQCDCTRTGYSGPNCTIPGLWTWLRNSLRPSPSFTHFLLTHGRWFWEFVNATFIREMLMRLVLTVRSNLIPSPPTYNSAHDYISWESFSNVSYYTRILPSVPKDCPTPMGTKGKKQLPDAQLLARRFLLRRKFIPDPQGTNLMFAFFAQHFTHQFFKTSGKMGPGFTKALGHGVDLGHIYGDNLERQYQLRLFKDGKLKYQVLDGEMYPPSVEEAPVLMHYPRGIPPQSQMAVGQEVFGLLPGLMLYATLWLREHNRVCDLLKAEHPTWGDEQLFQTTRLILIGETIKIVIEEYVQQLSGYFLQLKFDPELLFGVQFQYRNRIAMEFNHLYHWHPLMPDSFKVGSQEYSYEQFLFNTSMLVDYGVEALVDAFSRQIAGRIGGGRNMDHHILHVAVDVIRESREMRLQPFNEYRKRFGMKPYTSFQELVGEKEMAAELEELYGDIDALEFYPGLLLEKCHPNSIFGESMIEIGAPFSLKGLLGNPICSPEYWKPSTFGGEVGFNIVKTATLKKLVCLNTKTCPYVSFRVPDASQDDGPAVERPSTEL

[7] = DRUGMATRIX: Glutamate, Kainate radioligand binding (ligand: [3H] Kainic acid); type: cell membranes, Rattus norvegicus, Wistar, Brain, Membrane; conditions: Not Active = under 50% inhibition at 10 µM
[8] = target: Beta-3 adrenergic receptor (Homo sapiens, UniProt P13945); assay: DRUGMATRIX: Adrenergic beta3 radioligand binding (ligand: [125I] Cyanopindolol); type: cell membranes, HEK293, Membrane; conditions: hek293; Not Active = under 50% inhibition at 10 µM
Sequence of Beta-3 adrenergic receptor (P13945 whole entry): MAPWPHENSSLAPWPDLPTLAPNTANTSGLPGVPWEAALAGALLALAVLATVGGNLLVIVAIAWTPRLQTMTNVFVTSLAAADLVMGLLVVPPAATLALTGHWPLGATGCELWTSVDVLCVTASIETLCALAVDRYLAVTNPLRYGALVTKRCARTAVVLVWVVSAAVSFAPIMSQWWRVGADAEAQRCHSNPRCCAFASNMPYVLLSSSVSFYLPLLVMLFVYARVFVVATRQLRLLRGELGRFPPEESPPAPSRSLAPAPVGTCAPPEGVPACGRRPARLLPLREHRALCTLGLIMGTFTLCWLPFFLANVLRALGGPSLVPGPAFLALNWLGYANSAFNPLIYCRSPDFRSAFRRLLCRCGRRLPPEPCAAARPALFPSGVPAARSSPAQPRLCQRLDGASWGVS

[9] = target: T2, Alpha-2C adrenergic receptor (Homo sapiens, UniProt P18825); assay: DRUGMATRIX: Adrenergic Alpha-2C radioligand binding (ligand: [3H] MK-912); type: cell membranes, Sf9, Membrane; conditions: sf9
T2 sequence (P18825 whole entry): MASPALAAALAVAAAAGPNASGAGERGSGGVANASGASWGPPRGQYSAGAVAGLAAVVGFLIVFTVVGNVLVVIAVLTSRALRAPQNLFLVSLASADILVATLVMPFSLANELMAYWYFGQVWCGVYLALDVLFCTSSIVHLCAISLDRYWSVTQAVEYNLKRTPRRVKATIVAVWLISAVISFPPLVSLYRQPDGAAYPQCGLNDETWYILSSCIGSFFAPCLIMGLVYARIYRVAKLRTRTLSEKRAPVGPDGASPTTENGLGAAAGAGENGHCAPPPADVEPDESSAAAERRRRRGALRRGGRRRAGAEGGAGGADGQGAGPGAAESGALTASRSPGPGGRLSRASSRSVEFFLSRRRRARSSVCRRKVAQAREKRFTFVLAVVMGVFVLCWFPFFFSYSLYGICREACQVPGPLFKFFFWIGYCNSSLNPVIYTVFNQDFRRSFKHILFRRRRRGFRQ

[10] = target: T3, Angiotensin-converting enzyme (Oryctolagus cuniculus, UniProt P12822); assay: biochemical; type: tissue-based, Lung
T3 sequence (P12822 whole entry): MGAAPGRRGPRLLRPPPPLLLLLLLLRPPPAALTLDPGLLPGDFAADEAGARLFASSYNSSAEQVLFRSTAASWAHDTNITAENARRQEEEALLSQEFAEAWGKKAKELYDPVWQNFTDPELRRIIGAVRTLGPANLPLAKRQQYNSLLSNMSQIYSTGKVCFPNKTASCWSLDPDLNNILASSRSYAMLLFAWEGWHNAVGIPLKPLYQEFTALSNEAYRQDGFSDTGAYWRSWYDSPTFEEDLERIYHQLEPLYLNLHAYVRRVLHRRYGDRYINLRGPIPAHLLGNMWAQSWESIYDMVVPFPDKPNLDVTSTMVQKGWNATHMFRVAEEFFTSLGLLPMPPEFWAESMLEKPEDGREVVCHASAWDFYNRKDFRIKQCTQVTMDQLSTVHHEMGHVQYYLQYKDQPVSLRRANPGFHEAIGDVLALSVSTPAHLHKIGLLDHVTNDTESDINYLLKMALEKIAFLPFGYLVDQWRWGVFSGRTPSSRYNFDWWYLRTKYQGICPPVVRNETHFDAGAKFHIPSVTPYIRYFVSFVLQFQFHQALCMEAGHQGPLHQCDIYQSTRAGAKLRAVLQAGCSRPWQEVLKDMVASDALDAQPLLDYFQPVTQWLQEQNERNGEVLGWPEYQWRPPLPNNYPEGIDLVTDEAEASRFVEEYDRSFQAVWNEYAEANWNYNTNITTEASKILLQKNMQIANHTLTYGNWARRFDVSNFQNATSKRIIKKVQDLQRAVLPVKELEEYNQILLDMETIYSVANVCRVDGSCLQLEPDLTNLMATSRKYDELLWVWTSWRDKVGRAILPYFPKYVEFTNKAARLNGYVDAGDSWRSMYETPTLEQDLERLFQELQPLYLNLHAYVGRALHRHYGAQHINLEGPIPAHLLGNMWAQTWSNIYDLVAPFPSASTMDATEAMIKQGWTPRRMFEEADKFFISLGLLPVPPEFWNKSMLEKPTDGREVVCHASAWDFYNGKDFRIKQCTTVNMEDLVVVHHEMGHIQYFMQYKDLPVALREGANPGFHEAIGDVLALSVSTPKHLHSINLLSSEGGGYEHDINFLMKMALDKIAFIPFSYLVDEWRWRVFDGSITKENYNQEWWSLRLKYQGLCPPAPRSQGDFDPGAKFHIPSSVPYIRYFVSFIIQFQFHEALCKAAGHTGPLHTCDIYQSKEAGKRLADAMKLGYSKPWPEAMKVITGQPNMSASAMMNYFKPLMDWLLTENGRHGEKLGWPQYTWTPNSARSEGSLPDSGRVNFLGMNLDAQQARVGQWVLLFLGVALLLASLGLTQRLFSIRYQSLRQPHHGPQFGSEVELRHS

[11] = target: Mu-type opioid receptor (Homo sapiens, UniProt P35372); assay: DRUGMATRIX: Opiate mu (OP3, MOP) radioligand binding (ligand: [3H] Diprenorphine); type: cell membranes, CHO-K1, Membrane; conditions: cho-k1; Not Active = under 50% inhibition at 10 µM
Sequence of Mu-type opioid receptor (P35372 whole entry): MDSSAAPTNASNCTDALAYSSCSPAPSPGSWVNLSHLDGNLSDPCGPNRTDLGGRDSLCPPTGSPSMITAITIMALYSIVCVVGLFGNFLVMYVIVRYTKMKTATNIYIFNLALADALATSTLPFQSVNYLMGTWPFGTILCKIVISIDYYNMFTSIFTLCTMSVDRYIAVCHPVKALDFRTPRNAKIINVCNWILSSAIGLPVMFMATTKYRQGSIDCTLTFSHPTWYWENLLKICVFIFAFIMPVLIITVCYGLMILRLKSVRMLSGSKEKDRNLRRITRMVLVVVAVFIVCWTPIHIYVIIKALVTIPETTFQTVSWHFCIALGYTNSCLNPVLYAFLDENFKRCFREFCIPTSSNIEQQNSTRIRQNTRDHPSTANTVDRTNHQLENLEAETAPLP

[12] = target: Voltage-gated inwardly rectifying potassium channel KCNH2 (Homo sapiens, UniProt Q12809); conditions: hek293; note: in other assays of this panel Not Active means under 50% inhibition at 10 µM
Sequence of Voltage-gated inwardly rectifying potassium channel KCNH2 (Q12809 whole entry): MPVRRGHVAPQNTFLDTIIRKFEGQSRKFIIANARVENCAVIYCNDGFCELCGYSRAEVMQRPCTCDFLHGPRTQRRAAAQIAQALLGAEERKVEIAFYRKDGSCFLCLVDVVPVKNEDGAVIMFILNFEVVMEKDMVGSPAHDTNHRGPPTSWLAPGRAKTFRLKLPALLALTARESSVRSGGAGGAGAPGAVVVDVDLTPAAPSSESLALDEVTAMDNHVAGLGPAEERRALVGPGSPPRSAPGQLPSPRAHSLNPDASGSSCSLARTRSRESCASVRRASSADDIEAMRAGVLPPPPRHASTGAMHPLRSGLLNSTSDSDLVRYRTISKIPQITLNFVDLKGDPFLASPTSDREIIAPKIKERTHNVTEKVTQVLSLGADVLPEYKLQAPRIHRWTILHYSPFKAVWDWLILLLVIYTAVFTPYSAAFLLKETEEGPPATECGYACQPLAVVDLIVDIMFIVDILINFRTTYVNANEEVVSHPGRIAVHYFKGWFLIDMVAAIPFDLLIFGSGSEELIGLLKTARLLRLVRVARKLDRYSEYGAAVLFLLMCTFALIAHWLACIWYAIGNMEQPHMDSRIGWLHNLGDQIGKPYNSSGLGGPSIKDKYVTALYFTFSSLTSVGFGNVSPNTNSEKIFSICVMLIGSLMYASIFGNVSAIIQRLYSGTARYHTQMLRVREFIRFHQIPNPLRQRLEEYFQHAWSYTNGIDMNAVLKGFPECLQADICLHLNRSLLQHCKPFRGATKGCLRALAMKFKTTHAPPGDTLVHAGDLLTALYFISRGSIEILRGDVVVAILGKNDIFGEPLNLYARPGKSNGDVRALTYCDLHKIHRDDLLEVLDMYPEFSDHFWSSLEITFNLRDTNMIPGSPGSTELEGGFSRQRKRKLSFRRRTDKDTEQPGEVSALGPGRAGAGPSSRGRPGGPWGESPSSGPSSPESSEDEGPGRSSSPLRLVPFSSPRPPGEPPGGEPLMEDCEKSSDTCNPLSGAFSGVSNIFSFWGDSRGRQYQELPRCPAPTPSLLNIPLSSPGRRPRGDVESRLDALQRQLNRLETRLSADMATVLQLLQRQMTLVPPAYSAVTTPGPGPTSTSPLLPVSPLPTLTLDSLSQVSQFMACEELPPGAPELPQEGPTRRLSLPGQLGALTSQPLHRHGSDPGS

Sequence of Cytochrome P450 2C19 (P33261 whole entry): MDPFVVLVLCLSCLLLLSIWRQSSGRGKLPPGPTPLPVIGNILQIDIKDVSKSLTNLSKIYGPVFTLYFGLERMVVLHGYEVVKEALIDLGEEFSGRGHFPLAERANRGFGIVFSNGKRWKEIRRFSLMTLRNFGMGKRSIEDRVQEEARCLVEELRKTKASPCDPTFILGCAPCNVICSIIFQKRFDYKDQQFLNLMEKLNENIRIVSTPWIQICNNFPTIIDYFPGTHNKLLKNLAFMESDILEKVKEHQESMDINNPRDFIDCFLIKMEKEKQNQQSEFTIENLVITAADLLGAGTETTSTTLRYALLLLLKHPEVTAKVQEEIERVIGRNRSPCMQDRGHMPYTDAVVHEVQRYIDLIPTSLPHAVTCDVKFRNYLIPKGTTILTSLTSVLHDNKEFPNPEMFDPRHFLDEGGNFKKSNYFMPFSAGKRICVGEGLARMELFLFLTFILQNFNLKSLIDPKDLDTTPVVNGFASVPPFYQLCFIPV

NS(=O)(=O)c1cc2c(cc1Cl)NCNS2(=O)=O [HYDROCHLOROTHIAZIDE]
Not Active: IC50 [1] | Ki [1] | IC50 [2] | Ki [2] | IC50 [3] | IC50 [4] | Ki [4] | IC50 [5] | IC50 [6] | IC50 [7] | Ki [7] | IC50 [8] | IC50 [9] | IC50 [10] | IC50 [11] | IC50 [12] | Ki [12]

CN1CCC[C@H]1c1cccnc1 [NICOTINE]
Not Active: IC50 [1] | Ki [1] | IC50 [2] | Ki [2] | IC50 [3] | IC50 [4] | Ki [4] | IC50 [5] | IC50 [6] | IC50 [7] | Ki [7] | IC50 [8] | IC50 [9] | IC50 [10] | IC50 [11] | IC50 [12] | Ki [12]

O=C1CN=C(c2ccccc2)c2cc([N+](=O)[O-])ccc2N1 [NITRAZEPAM]
Not Active: IC50 [1] | Ki [1] | IC50 [2] | Ki [2] | IC50 [3] | IC50 [4] | Ki [4] | IC50 [5] | IC50 [6] | IC50 [7] | Ki [7] | IC50 [8] | IC50 [9] | IC50 [10] | IC50 [11] | IC50 [12] | Ki [12]

CC1COc2c(N3CCN(C)CC3)c(F)cc3c(=O)c(C(=O)O)cn1c23 (stereo not drawn) [OFLOXACIN]
Not Active: IC50 [1] | Ki [1] | IC50 [2] | Ki [2] | IC50 [3] | IC50 [4] | Ki [4] | IC50 [5] | IC50 [6] | IC50 [7] | Ki [7] | IC50 [8] | IC50 [9] | IC50 [10] | IC50 [11] | IC50 [12] | Ki [12]

Oc1cccc2cccnc12 [OXYQUINOLINE]
Not Active: IC50 [1] | Ki [1] | IC50 [2] | Ki [2] | IC50 [3] | IC50 [4] | Ki [4] | IC50 [5] | IC50 [6] | IC50 [7] | Ki [7] | IC50 [8] | IC50 [9] | IC50 [10] | IC50 [11] | IC50 [12] | Ki [12]

CN(C)[C@@H]1C(O)=C(C(N)=O)C(=O)[C@@]2(O)C(O)=C3C(=O)c4c(O)cccc4[C@@](C)(O)[C@H]3[C@H](O)[C@@H]12 [OXYTETRACYCLINE]
Not Active: IC50 [1] | Ki [1] | IC50 [2] | Ki [2] | IC50 [3] | IC50 [4] | Ki [4] | IC50 [5] | IC50 [6] | IC50 [7] | Ki [7] | IC50 [8] | IC50 [9] | IC50 [10] | IC50 [11] | IC50 [12] | Ki [12]

CC(C)(S)[C@@H](N)C(=O)O [PENICILLAMINE]
Not Active: IC50 [1] | Ki [1] | IC50 [2] | Ki [2] | IC50 [3] | IC50 [4] | Ki [4] | IC50 [5] | IC50 [6] | IC50 [7] | Ki [7] | IC50 [8] | IC50 [9] | IC50 [10] | IC50 [11] | IC50 [12] | Ki [12]

CC(=O)CCCCn1c(=O)c2c(ncn2C)n(C)c1=O [PENTOXIFYLLINE]
Not Active: IC50 [1] | Ki [1] | IC50 [2] | Ki [2] | IC50 [3] | IC50 [4] | Ki [4] | IC50 [5] | IC50 [6] | IC50 [7] | Ki [7] | IC50 [8] | IC50 [9] | IC50 [10] | IC50 [11] | IC50 [12] | Ki [12]

O=C1NC(=O)C(c2ccccc2)(c2ccccc2)N1 [PHENYTOIN]
Not Active: IC50 [1] | Ki [1] | IC50 [2] | Ki [2] | IC50 [3] | IC50 [4] | Ki [4] | IC50 [5] | IC50 [6] | IC50 [7] | Ki [7] | IC50 [8] | IC50 [9] | IC50 [10] | IC50 [11] | IC50 [12] | Ki [12]
